Earlier results in patent publication US20070037707A1, “Plant growth regulator formulations” (HELENA HOLDING COMPANY, priority 2005, published 2007).

Key:
[1] = not given; remark: listed apart in the source
[2] = test system: organically grown cotton; settings: used alone; compared with conventional chemistry like (2-chloroethyl) phosphonic acid

Row | Structure (SMILES) | water solubility | pH of the pure product ([1]; according to the MSDS sheet for a formulated product) | pH range in which stable ([1]; at higher pH decomposes and liberates ethylene, Pesticide Manual) | effectiveness as cotton defoliant [2]
1 | O=P(O)(O)CCCl [(2-chloroethyl)phosphonic acid] | water soluble | 1.7 | below 3.5 | –
2 | O=C(O)CC(O)(CC(=O)O)C(=O)O [Citric acid] | – | – | – | not as effective
